Source: patent US6358883B1, “Pesticidal and parasiticidal use of 1-aryl-1-(substituted thio, sulfinyl and sulfonyl)-2-nitroethane compounds” (American Cyanamid Company, priority 1998, dated 2002)

Tests used:
Format in all cases: in vivo
[1] = test system: M. incognita (Root Knot Nematode) larvae; test: Evaluation of test compounds against M. incognita larvae in microtiter plate wells (movement score); details: larvae scored for movement after 20-24 hours; also: key: A score of '9' indicates inactive worms with a straight, sticklike morphology; A score of '8' indicates inactive worms with a limp, curled or curved morphology; A score of '7' indicates dead/paralyzed worms after 72 hours
Method: Evaluation of Test Compounds Against M. incognita (Root Knot Nematode)
Newly emerged M. incognita larvae are suspended in S Medium (buffered salt solution) to a concentration of 50-65 worms per 50 μl. 50 μl of the worm suspension are pipetted into microtiter plate wells containing the test compounds. The plates are then covered with plactic plate sealers to reduce loss of volume by evaporation. After 20-24 hours of incubation, the larvae are scored for movement. Wells containing obviously dead/paralyzed larvae are scored as positive. […] A score of “7” indicates dead/paralyzed worms after […].

[2] = test system: C. elegans (Bristol strain); test: Evaluation of test compounds against C. elegans (motility, 96-well plate); set-up: key: 9=complete kill in 4 hours; 8=complete kill in 24 hours; 7=markedly reduced motility in approximately 95% of worms in 24 hours; 0=normal motility, same as controls; details: motility at 4 and 24 hours
Method: Evaluation of Test Compounds Against C. elegans Cultures of C. elegans (Bristol strain from J. Lewis) are maintained on E. coli lawns on NG Agar Plates at 20° C. New cultures are established weekly. Nematodes for testing are washed from cultures using Na buffer. Compounds are dissolved in 80% acetone. The test material is micropipetted (25 μl) into a single well of a 96-well sterile tissue culture plate and the solvent allowed to evaporate. A freshly prepared volume (50 μl) of C. elegans in Na buffer is micropipetted into each treated well and several control wells per plate. Plates are incubated at 20° C. Observations for efficacy are made under a dissecting microscope at 4 and 24 hours post-immersion. Immediately prior to reading the plate, it is gently tapped to stimulate the movement of the worms. Activity is judged subjectively, but semi-quantitatively, based on the drug effects on motility of the adults and larvae.

[3] = test system: Spodoptera eridania, 2nd instar larvae, southern armyworm (SAW); test: Southern armyworm (SAW) leaf dip test; set-up: key: 0 = no effect; 1 = 10-25% kill; 2 = 26-35% kill; 3 = 36-45% kill; 4 = 46-55% kill; 5 = 56-65% kill; 6 = 66-75% kill; 7 = 76-85% kill; 8 = 86-99% kill; 9 = 100% kill
Method: (§1) Test solutions are prepared by dissolving the test compound in a 35% acetone in water mixture to give a concentration of 10,000 ppm. Subsequent dilutions are made with water as needed.
Spodoptera eridania, 2nd Instar Larvae, Southern Armyworm (SAW)
A Sieva lima bean leaf expanded to 7-8 cm in length is dipped in the test solution with agitation for 3 seconds and allowed to dry in a hood. The leaf is then placed in a 100×10 mm petri dish containing a damp filter paper on the bottom and ten 2nd instar caterpillars. At 5 days, observations are made of mortality, reduced feeding, or any interference with normal molting.

[4] = test system: Diabrotica virgifera virgifera Leconte, 2nd instar western corn rootworm (WCR); test: Western corn rootworm (WCR) soil test; set-up: key: 0 = no effect; 1 = 10-25% kill; 2 = 26-35% kill; 3 = 36-45% kill; 4 = 46-55% kill; 5 = 56-65% kill; 6 = 66-75% kill; 7 = 76-85% kill; 8 = 86-99% kill; 9 = 100% kill
Method: Test solutions are prepared by dissolving the test compound in a 35% acetone in water mixture to give a concentration of 10,000 ppm. Subsequent dilutions are made with water as needed. Diabrotica virgifera virgifera Leconte, 2nd Instar Western Corn Rootworm (WCR) One cc of fine talc is placed in a 30 mL wide-mouth screw-top glass jar. One mL of the appropriate acetone test solution is pipetted onto the talc so as to provide 1.25 mg of active ingredient per jar. The jars are set under a gentle air flow until the acetone is evaporated. The dried talc is loosened, 1 cc of millet seed is added to serve as food for the insects and 25 mL of moist soil is added to each jar. The jar is capped and the contents thoroughly mixed mechanically. Following this, ten 2nd instar rootworms are added to each jar and the jars are loosely capped to allow air exchange for the larvae. The treatments are held for 5 days when mortality counts are made. Missing larvae are presumed dead, since they decompose rapidly and cannot be found. The concentrations of active ingredient used in this test correspond approximately to 50 kg/ha. [table]

[5] = test system: Tetranychus urticae (OP-resistant strain), 2-spotted spider mite (TSM); test: 2-spotted spider mite (TSM) plant dip test; set-up: key: 0 = no effect; 1 = 10-25% kill; 2 = 26-35% kill; 3 = 36-45% kill; 4 = 46-55% kill; 5 = 56-65% kill; 6 = 66-75% kill; 7 = 76-85% kill; 8 = 86-99% kill; 9 = 100% kill; details: mortality after 2 days
Method: as §1
Tetranychus urticae (OP-resistant strain), 2-spotted Spider Mite (TSM)
Sieva lima bean plants with primary leaves expanded to 7-8 cm are selected and cut back to one plant per pot. A small piece is cut from an infested leaf taken from the main colony and placed on each leaf of the test plants. This is done about 2 hours before treatment to allow the mites to move over to the test plant to lay eggs. The size of the cut, infested leaf is varied to obtain about 100 mites per leaf. At the time of test treatment, the piece of leaf used to transfer the mites is removed and discarded. The newly-infested plants are dipped in the test solution for 3 seconds with agitation and set in the hood to dry. After 2 days, one leaf is removed and mortality counts are made.

[6] = test system: Aphis gossypii, cotton aphid (CA); test: Cotton aphid (CA) cotyledon dip test; set-up: key: 0 = no effect; 1 = 10-25% kill; 2 = 26-35% kill; 3 = 36-45% kill; 4 = 46-55% kill; 5 = 56-65% kill; 6 = 66-75% kill; 7 = 76-85% kill; 8 = 86-99% kill; 9 = 100% kill; details: mortality after 5 days
Method: Test solutions are prepared by dissolving the test compound in a 35% acetone in water mixture to give a concentration of 10,000 ppm. Subsequent dilutions are made with water as needed. Aphis gossypii, Cotton Aphid (CA) Cotton plants at the cotyledon stage are selected and cut back to one plant per pot. A heavily infested leaf is taken from the main colony and placed on top of each cotyledon. The aphids are allowed to transfer to the host plant overnight. At the time of test treatment, the leaf used to transfer the aphids is removed and discarded. The cotyledons are dipped in the test solution and allowed to dry. After 5 days, mortality counts are made. [table]

Compound | M. incognita (150 ppm) score [1] | Rating Against C. elegans (150 ppm) [2] | SAW (300 ppm) rating [3] | WCR (50 ppm) rating [4] | TSM (300 ppm) rating [5] | CA (300 ppm) rating [6]
O=C(O)CSC(C[N+](=O)[O-])c1ccc(F)cc1 (stereo not shown) [Example 63] | 9 | 9 | 0 | 0 | 0 | 0
O=C(O)CSC(C[N+](=O)[O-])c1ccc2c(c1)OCO2 (stereo not shown) [Example 64] | 9 | 9 | 0 | 0 | 9 (9 = 100% kill) | 0
Cc1ccc(C(C[N+](=O)[O-])SCC(=O)O)cc1 (stereo not shown) [Example 65] | 9 | 9 | 0 | 9 (9 = 100% kill) | 0 | 0
CC(C)c1ccc(C(C[N+](=O)[O-])SCC(=O)O)cc1 (stereo not shown) [Example 66] | 9 | 9 | 0 | 8 (8 = 86-99% kill) | 0 | 0
O=C(O)CSC(C[N+](=O)[O-])c1ccccc1F (stereo not shown) [Example 67] | 9 | 9 | 0 | 9 (9 = 100% kill) | 0 | 0
COc1cccc(C(C[N+](=O)[O-])SCC(=O)O)c1 (stereo not shown) [Example 68] | 9 | 8 | 0 | 3 (3 = 36-45% kill) | 0 | 0
COc1ccc(C(C[N+](=O)[O-])SCC(=O)O)cc1 (stereo not shown) [Example 69] | 9 | 9 | 0 | 0 | 0 | 0
COC(=O)CSC(C[N+](=O)[O-])c1ccc(Cl)cc1 (stereo not shown) [Example 70] | 9 | 7 | 0 | 0 | 0 | 0
C=CCSC(C[N+](=O)[O-])c1ccc(Cl)cc1 (stereo not shown) [Example 77] | 0 | 0 | 0 | 0 | 3 (3 = 36-45% kill) | –
COC(=O)CSC(C[N+](=O)[O-])c1ccc(OC)cc1OC (stereo not shown) [Example 79] | 0 | 7 | – | – | – | –
COc1ccc(C(C[N+](=O)[O-])SCC(=O)N2CCOCC2)c(OC)c1 (stereo not shown) [Example 80] | 0 | 7 | – | – | – | –
COc1ccc(C(C[N+](=O)[O-])SCc2ccccc2)c(OC)c1 (stereo not shown) [Example 81] | 0 | 7 | – | – | – | –
NC(CSC(C[N+](=O)[O-])c1ccccc1)C(=O)O (stereo not shown) [Example 83] | 9 | 9 | – | – | – | –
COc1ccc(C(C[N+](=O)[O-])SCC(N)C(=O)O)c(OC)c1 (stereo not shown) [Example 84] | 0 | 9 | – | – | – | –
O=[N+]([O-])CC(SCC(O)CO)c1ccccc1 (stereo not shown) [Example 85] | 9 | 7 | – | – | – | –
COC(=O)CSC(C[N+](=O)[O-])c1ccc(OC)c(OC)c1 (stereo not shown) [Example 86] | 0 | 0 | – | – | – | –
COc1cc(OC)cc(C(C[N+](=O)[O-])SCC(O)CO)c1 (stereo not shown) [Example 87] | 0 | 0 | – | – | – | –
COC(=O)CSC(c1ccccc1)C(C)[N+](=O)[O-] (stereo not shown) [Example 150] | – | – | 0 | 6 (6 = 66-75% kill) | 0 | 0
CCOC(=O)CSC(c1ccccc1)C(C)[N+](=O)[O-] (stereo not shown) [Example 151] | – | – | 0 | 0 | 0 | 0
COC(=O)CSC(C[N+](=O)[O-])c1ccc(F)c(F)c1 (stereo not shown) [Example 152] | – | – | 0 | 7 (7 = 76-85% kill) | 0 | 0
CCOC(=O)CSC(C[N+](=O)[O-])c1ccc(F)c(F)c1 (stereo not shown) [Example 153] | – | – | 0 | 0 | 0 | 0
CCCOC(=O)CSC(C[N+](=O)[O-])c1ccc(F)c(F)c1 (stereo not shown) [Example 154] | – | – | 0 | 0 | 0 | 0
CC(C)OC(=O)CSC(C[N+](=O)[O-])c1ccc(F)c(F)c1 (stereo not shown) [Example 155] | – | – | 0 | 0 | 3 (3 = 36-45% kill) | 0
O=[N+]([O-])CC(SCc1ccco1)c1ccccc1 (stereo not shown) [Example 156] | – | – | 0 | 0 | 0 | 0
O=[N+]([O-])CC(SCc1ccco1)c1ccc2c(c1)OCO2 (stereo not shown) [Example 159] | – | – | 0 | 0 | 0 | 0
CC(C(SCC(=O)O)c1ccccc1)[N+](=O)[O-] (stereo not shown) [Example 161] | – | – | 0 | 4 (4 = 46-55% kill) | 0 | 0
CCCCOC(=O)CSC(c1ccccc1)C(C)[N+](=O)[O-] (stereo not shown) [Example 162] | – | – | 0 | 6 (6 = 66-75% kill) | 0 | 0
